{"source": "patent US6488967B1", "about": "“Gastric acid secretion” (Phytopharm PLC, priority 1999, dated 2002)", "key": {"[1]": {"test_system": "aspirin-induced damage to the stomach", "test": "aspirin-induced damage to the stomach in the rat", "assay_type": "in vivo", "design": "key to Gastric damage score (individual rat) / Gastric damage score, Mean: small haemorrhage 1, large haemorrhage 2, small ulcer 3, large ulcer 4 points", "details": "for average reduction in gastric damage: vs control group; for Gastric damage score, Mean / Gastric damage score (individual rat): aspirin about 600 mg/kg orally, after 5 hours; for Gastric damage score, Mean: mean of eight rats; for Gastric damage score (individual rat): single animals", "method": "Three groups each containing eight rats were given aspirin in 0.5% CMC orally at a dose of about 600 mg/kg (1.0 ml of 60 mg/ml). The first group (the control group) was additionally given 0.5% CMC. The second group was given compound P57AS3 at a dose rate of 100 mg/kg; and the third group (comparative group) was given cimetidine at a dose rate of 20 mg/kg. […] Damage was assessed on a scale in which each small haemorrhage scored one point; each large haemorrhage scored two points; each small ulcer scored three points; and each large ulcer scored four points."}, "[2]": {"test_system": "gastric acid secretion", "test": "gastric acid secretion in the pylorus-ligated rat", "assay_type": "in vivo", "method": "The effect of both the spray dried extract (sap from Hoodia gordonii)-referred to hereinafter as […]-and the purified compound P57AS3 were examined for effects on gastric acid secretion in the pylorus-ligated rat. Male Sprague-Dawley derived CD rats, 175-230 g, were used. On the day before the test, rats were outfitted with stainless steel tail cups to prevent coprophagy, housed individually with water allowed ad lib, and fasted overnight (18 hr). In one test the […] (5 or 50 mg/kg), or cimetidine (10 mg/kg) or vehicle (water) was orally administered to the rats immediately before fasting. Water was removed 30 minutes prior to ligation on the morning of the test. […] In a second experiment, purified compound P57AS3 was administered intraduodenally (i.d.) at 1 or 10 mg/kg at the time of the pylorus ligation. In this experiment with intraduodenal administration of P57AS3, vehicle (DMSO), cimetidine (10 mg/kg) or P57AS3 (1 or 10 mg/kg) was administered immediately after ligation. The incisions were then closed with staples. In the experiments with subcutaneous administration of P57, vehicle (DMSO), cimetidine (10 mg/kg) or P57, 10 or 30 mg/kg were injected subcutaneously in the nape of the neck immediately after the incisions were closed. Two hours after ligation, the rats were killed, the contents of each stomach collected and cleaned by centrifugation (30 minutes at 2000×g), and the volume of gastric fluid in each stomach was determined. Using a Radiometer pH meter and autotitrator, the pH and acid concentration of each gastric sample was determined by titration to pH 7 with 0.1N NaOH. Results are expressed as μeq/hr/100 g (body weight) and % vehicle control."}, "[3]": {"test_system": "spontaneously beating guinea pig right atria", "test": "isolated tissue: spontaneously beating right atria", "details": "concentrations ≦10 μM", "method": "(§1) Purified P57AS3 was examined for binding affinity to a variety of receptors, channels, and uptake sites in vitro. […], In isolated tissue studies, P57AS3 at concentrations ≦10 μM had no effect on the rate of spontaneously beating guinea pig right atria or on the force of contraction of electrically stimulated left atria. […] P57AS3 had no effect on resting tension of isolated guinea pig gallbladder, ileum or trachea, or on CCK octapeptide-induced contractions of the gallbladder (CCK-A receptor mediated), histamine induced contractions of the guinea pig ileum (H1 receptor mediated), or acetylcholine-induced contractions of the guinea pig ileum (M3 receptor mediated)."}, "[4]": {"test_system": "electrically stimulated left atria", "test": "isolated tissue: electrically stimulated left atria", "design": "species or system guinea pig", "method": "as §1"}, "[5]": {"test_system": "isolated guinea pig gallbladder", "test": "isolated tissue: resting tension of gallbladder", "method": "as §1"}, "[6]": {"test_system": "isolated guinea pig ileum", "test": "isolated tissue: resting tension of ileum", "method": "as §1"}, "[7]": {"test_system": "isolated guinea pig trachea", "test": "isolated tissue: resting tension of trachea", "method": "as §1"}, "[8]": {"molecular_target": "T1, CCK-A receptor (Cavia porcellus, UniProt Q63931)", "T1 construct": "P57AS3 had no effect on resting tension of isolated guinea pig gallbladder, ileum or trachea; from tissue; host or cells: isolated guinea pig gallbladder", "T1 sequence (Q63931 1-430)": "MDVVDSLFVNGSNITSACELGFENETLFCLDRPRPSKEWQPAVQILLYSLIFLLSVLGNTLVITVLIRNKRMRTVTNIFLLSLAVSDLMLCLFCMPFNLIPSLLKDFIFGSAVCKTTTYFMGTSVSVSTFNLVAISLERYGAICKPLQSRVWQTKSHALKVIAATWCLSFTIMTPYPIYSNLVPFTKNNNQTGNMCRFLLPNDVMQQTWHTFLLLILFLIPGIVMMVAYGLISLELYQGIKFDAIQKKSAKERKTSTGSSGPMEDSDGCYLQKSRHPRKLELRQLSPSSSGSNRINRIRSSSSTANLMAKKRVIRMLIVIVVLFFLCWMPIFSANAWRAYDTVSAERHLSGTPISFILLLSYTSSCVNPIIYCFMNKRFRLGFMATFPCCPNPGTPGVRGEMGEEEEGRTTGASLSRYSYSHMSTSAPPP", "test": "CCK octapeptide-induced contractions of the gallbladder", "design": "species or system guinea pig", "details": "CCK-A receptor mediated", "method": "as §1"}, "[9]": {"molecular_target": "T2, H1 receptor (Cavia porcellus, UniProt P31389)", "T2 construct": "histamine induced contractions of the guinea pig ileum (H1 receptor mediated); from tissue; host or cells: isolated guinea pig ileum", "T2 sequence (P31389 whole entry)": "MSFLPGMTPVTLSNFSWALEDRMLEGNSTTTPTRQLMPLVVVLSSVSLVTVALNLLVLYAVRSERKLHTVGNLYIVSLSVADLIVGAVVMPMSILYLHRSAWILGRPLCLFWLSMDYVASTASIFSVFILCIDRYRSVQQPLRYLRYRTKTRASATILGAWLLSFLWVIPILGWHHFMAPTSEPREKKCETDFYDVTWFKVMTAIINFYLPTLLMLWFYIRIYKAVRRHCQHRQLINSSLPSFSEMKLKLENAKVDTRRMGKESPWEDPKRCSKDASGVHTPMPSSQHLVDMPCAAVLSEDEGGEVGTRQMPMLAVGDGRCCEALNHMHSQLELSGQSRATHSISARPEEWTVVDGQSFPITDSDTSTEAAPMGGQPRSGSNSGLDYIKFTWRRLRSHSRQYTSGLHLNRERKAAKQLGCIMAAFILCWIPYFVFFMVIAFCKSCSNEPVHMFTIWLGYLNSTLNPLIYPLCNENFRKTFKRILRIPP", "test": "histamine induced contractions of the guinea pig ileum", "details": "H1 receptor mediated", "method": "as §1"}, "[10]": {"molecular_target": "T3, M3 receptor (Cavia porcellus, UniProt H0W1Z3)", "T3 construct": "acetylcholine-induced contractions of the guinea pig ileum (M3 receptor mediated); from tissue; host or cells: isolated guinea pig ileum", "T3 sequence (H0W1Z3 1-590)": "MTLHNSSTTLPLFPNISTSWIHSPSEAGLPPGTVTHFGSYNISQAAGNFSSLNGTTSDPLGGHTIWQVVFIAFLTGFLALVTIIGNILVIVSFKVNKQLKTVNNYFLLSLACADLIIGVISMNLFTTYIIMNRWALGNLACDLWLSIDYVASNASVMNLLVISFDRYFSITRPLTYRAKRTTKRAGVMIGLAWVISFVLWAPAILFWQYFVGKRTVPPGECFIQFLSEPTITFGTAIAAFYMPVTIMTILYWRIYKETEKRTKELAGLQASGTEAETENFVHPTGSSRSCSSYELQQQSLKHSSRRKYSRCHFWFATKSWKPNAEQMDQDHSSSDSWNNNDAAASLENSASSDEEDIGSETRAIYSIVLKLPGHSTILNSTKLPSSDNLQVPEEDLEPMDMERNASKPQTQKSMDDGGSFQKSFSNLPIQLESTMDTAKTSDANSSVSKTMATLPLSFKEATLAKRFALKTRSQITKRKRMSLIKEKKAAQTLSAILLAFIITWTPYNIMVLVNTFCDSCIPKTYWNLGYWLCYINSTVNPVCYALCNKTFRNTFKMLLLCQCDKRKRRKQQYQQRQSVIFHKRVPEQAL", "test": "acetylcholine-induced contractions of the guinea pig ileum", "details": "M3 receptor mediated", "method": "as §1"}, "[11]": {"test_system": "M3 receptor", "test": "carbachol-induced contractions of the guinea pig trachea", "details": "M3 receptor mediated, concentrations ≧1 μM", "method": "as §1"}, "[12]": {"details": "10 mg/kg sc, 1 of 3 experiments"}}, "note": "“And” between values parts separate entries of the source, which are not always exact repeats. Identical values can stand only once. “Also recorded” adds a separate entry of the source.", "data": [{"smiles": "CN/C(=N/CCSCc1nc[nH]c1C)NC#N", "note": "[Cimetidine, cimetidine, reference compound]", "values": [{"measurement": "average reduction in gastric damage", "setting": "[1]; 20 mg/kg", "result": 93.2, "unit": "%"}, {"measurement": "Gastric damage score, Mean", "setting": "[1]; oral 20 mg/kg", "result": 0.50}, {"measurement": "Gastric damage score (individual rat)", "setting": "[1]; oral 20 mg/kg", "result": "0 (7×) and 4"}]}, {"smiles": "C/C=C(\\C)C(=O)O[C@@H]1C[C@H]2[C@@H](CC=C3C[C@@H](O[C@H]4C[C@H](OC)[C@H](O[C@H]5C[C@H](OC)[C@H](O[C@@H]6O[C@H](C)[C@@H](O)[C@H](OC)[C@H]6O)[C@@H](C)O5)[C@@H](C)O4)CC[C@@]32C)[C@@]2(O)CC[C@H](C(C)=O)[C@@]12C", "note": "[P57AS3, 3-O-[-β-D-thevetopyranosyl-(1→4)-β-D-cymaropyranosyl-(1→4)-β-D-cymaropyranosyl]-12β-O-tigloyloxy-14-hydroxy-14β-pregn-5-en-20-one]", "values": [{"measurement": "average reduction in gastric damage", "setting": "[1]; 100 mg/kg", "result": 91.5, "unit": "%"}, {"measurement": "Gastric damage score, Mean", "setting": "[1]; oral 100 mg/kg", "result": 0.63}, {"measurement": "Gastric damage score (individual rat)", "setting": "[1]; oral 100 mg/kg", "result": "0 (6×) and 3 and 2"}, {"measurement": "effect on gastric acid secretion", "setting": "[2]; 1 mg/kg i.d. at the time of pylorus ligation", "result": "no effect"}, {"measurement": "decrease of acid secretion (acid output)", "setting": "[2]; 10 mg/kg i.d. at the time of pylorus ligation", "result": 88, "unit": "%"}, {"measurement": "effect on gastric acid secretion", "setting": "[2]; [12]", "result": "significant decrease"}, {"measurement": "reduction of gastric acid secretion", "setting": "[2]; [12]", "result": 43, "unit": "%"}, {"measurement": "effect on gastric acid output", "setting": "[2]; 10 mg/kg sc, 2 of 3 experiments", "result": "not significantly different from vehicle-treated controls; also recorded: no effect"}, {"measurement": "effect on gastric acid output", "setting": "[2]; 30 mg/kg sc, one experiment", "result": "not significantly different from vehicle-treated controls; also recorded: no effect"}, {"measurement": "Acid Output % Control mean ± sd", "setting": "[2]; Exp. II, 1 mg/kg id", "result": "109.0 ± 37.8", "unit": "% Control"}, {"measurement": "Acid Output % Control mean ± sd", "setting": "[2]; Exp. II, 10 mg/kg id", "result": "12.4 ± 1.1", "unit": "% Control"}, {"measurement": "Acid Output % Control mean ± sd", "setting": "[2]; Exp. III, 10 mg/kg sc", "result": "48.9 ± 29.2", "unit": "% Control"}, {"measurement": "Acid Output % Control mean ± sd", "setting": "[2]; Exp. IV, 10 mg/kg sc", "result": "74.0 ± 38.0", "unit": "% Control"}, {"measurement": "Acid Output % Control mean ± sd", "setting": "[2]; Exp. V, 10 mg/kg sc", "result": "*57.1 ± 19.8 % Control"}, {"measurement": "Acid Output % Control mean ± sd", "setting": "[2]; Exp. VI, 30 mg/kg sc", "result": "63.7 ± 17.3", "unit": "% Control"}, {"measurement": "effect on the rate of spontaneously beating right atria", "setting": "[3]", "result": "no effect"}, {"measurement": "effect on basal tension of electrically stimulated left atria", "setting": "[4]; concentrations of 1 μM and higher", "result": "intermittent and transient elevations"}, {"measurement": "effect on the force of contraction of electrically stimulated left atria", "setting": "[4]; concentrations ≦10 μM", "result": "no effect"}, {"measurement": "effect on resting tension of gallbladder", "setting": "[5]", "result": "no effect"}, {"measurement": "effect on resting tension of ileum", "setting": "[6]", "result": "no effect"}, {"measurement": "effect on resting tension of trachea", "setting": "[7]", "result": "no effect"}, {"measurement": "effect on CCK octapeptide-induced contractions of the gallbladder", "setting": "[8]", "result": "no effect"}, {"measurement": "effect on histamine induced contractions of the ileum", "setting": "[9]", "result": "no effect"}, {"measurement": "effect on acetylcholine-induced contractions of the ileum", "setting": "[10]", "result": "no effect"}, {"measurement": "effect on carbachol-induced contractions of the trachea", "setting": "[11]", "result": "noncompetitively inhibited"}]}]}
